From patent US6479287B1, “Method for transformation of cotton and organogenic regeneration” (Mississippi State University, priority 2000, dated 2002)

Test system: cotton shoot initiation (cultivar Deltapine 50 hypocotyl explants)
Assay: Dose response study: effect of aminoglycosides on cotton shoot initiation from hypocotyl explants on medium GA
Format: in vivo
Conditions: incorporated in medium GA, results after 1 month, kanamycin tested at 0-200 mg/l, geneticin at 0-20 mg/l
From the text: Hypocotyl sections were placed horizontally on shoot initiation medium (GA). Explants were maintained for 6 weeks on this medium. Shoot primordia were visible on the acropetal ends of hypocotyl sections after 2 weeks. After 6 weeks, leaves were clearly visible. Shoot initiation has been observed in 7 commercial cultivars (Deltapine 50, Stoneville 474, Deltapine 5111, Tx 121, Suregrow 125, Fibermax 819, and Paymaster 1215) and 3 breeding lines, and the response ranged from 20-73% (percentage explants capable of initiating shoots per cultivar).
GA: semi-solid GMS plus an auxin like NAA (0.1-3.0 mg/l), a cytokinin like TDZ, or BA plus kinetin (0.1-2.5 mg/l) and 1-50 mg/l silver nitrate
The effect of the aminoglycosides kanamycin and geneticin on cotton shoot initiation were investigated. Kanamycin, at concentrations of 0.0, 50, 100, 150 and 200 mg/I, and geneticin at 0.0, 5.0, 10, 15 and 20 mg/l, were incorporated in medium GA. The experiment consisted of 3 replicate plates/treatment and 4 explants/replicate plates using the cultivar Deltapine 50. […] A geneticin concentration up to 20 mg/l was not inhibitory to shoot initiation.

## CN[C@@H]1[C@@H](O)[C@@H](O[C@@H]2[C@@H](O)[C@H](O[C@H]3O[C@H]([C@@H](C)O)[C@@H](O)[C@H](O)[C@H]3N)[C@@H](N)C[C@H]2N)OC[C@]1(C)O [geneticin]
  concentration inhibitory to shoot initiation: > 20 mg/L

## NC[C@H]1O[C@H](O[C@H]2[C@H](O)[C@@H](O[C@H]3O[C@H](CO)[C@@H](O)[C@H](N)[C@H]3O)[C@H](N)C[C@@H]2N)[C@H](O)[C@@H](O)[C@@H]1O [kanamycin]
  concentration inhibitory to shoot initiation: 50 mg/L
